Results on eight molecules are retold here after patent US12497396B2, “Nitrogen-containing heterocyclic derivatives, method therefor and application therefor as inhibitors of KRAS G12C for the treatment of cancers” (SHANGHAI HANSOH BIOMEDICAL CO., LTD., priority 2019, dated 2025).

Data set [1] has as its system Mia PaCa-2 cells (KRAS G12C mutant cell line). The data set is described as follows: Inhibition of Mia PaCa-2 cell proliferation (CellTiter-Glo, 72 h). As to conditions: Homo sapiens. The data set is classed as cell-based, human. An excerpt:
As a preferred embodiment of the present disclosure, the detection method of NCI-H358 cell proliferation inhibitory activity and Mia PaCa-2 cell proliferation inhibitory activity is as follows: through cell culture, adding different concentrations of compound solutions to the cultured cells, continuing the culture for a period of time and measuring the cell proliferation; • further, the method of cell culture is: adjusting the cells to a suitable cell concentration with complete medium and spreading the cell suspension in well plates for culture; preferably, the culture conditions are 37° C., 5% CO2 incubator overnight; preferably, the cell suspension is spread in 96-well plates, 48-well plates, 24-well plates, 12-well plates or 6-well plates, more preferably 96-well plates; preferably, the suitable cell concentration is 1500-4000 cells/well, with 90 μL of cell suspension added to each well; • further, the compound solution is prepared with DMSO and may be further diluted with medium; preferably, the compound solution has a concentration gradient starting from 100 μM at 4-fold dilution, more preferably starting from 30 μM at 4-fold dilution, most preferably starting from 10 μM at 4-fold dilution; • further, the volume of the compound solution or solvent added to each well is 1-10 μL, preferably 10 μL; • further, after adding the compound solution, the conditions for continuing the culture are 37° C., 5% CO2 incubator; preferably, the culture time is 24-72 h, more preferably 72 h; • further, the method for measuring cell proliferation is MTT, CCK8, CellTiter-Glo; preferably the method is CellTiter-Glo; • further, the cell proliferation is read using a microplate reader, more preferably a BioTek Synergy H1 microplate reader.
When NCI-H358 or Mia PaCa-2 cells were cultured to the appropriate fusion level, the NCI-H358 or Mia PaCa-2 cells were collected, and the cells were adjusted to the appropriate cell concentration using a complete medium, and the cell suspension was spread in a 96-well plate, 90 μL per well, and placed in a 37° C., 5% CO2 incubator overnight; and compound solutions of different concentrations were prepared using DMSO and culture medium; and a solvent control was set, the compound solution was added to a 96-well plate, 10 μL per well, at 37° C. in a 5% CO2 incubator for 72 hours; CellTiter-Glo solution was added thereto and the mixture was mixed well by shaking, incubated for 10 min in the dark, and read by BioTek Synergy H1 microplate reader.
The luminescence signal values were used to calculate the inhibition rate, the concentration and the inhibition rate were fitted to a nonlinear regression curve using Graphpad Prism software, then the IC50 value was obtained.
For orientation: ATP-based viability assays read luminescence as a measure of living cells.

A further data set is described as follows: in vitro. It is filed as in vitro ADME. As to conditions: 0.5 μM. As to the method:
Animal or human whole blood was collected, then the blood was put into a test tube containing anticoagulant, centrifuged at 3500 rpm for 10 min, and the upper layer of pale yellow plasma was collected. • 2), 10 μM of tested compound (m/M/V=C)
The compound was weighed, the stock solution was prepared with DMSO and the working solution was prepared with 100 mM phosphate buffer. • 3), 10 μM of positive control (1) Propantheline (Propantheline Mr=449.4 Da)
• 1) 285 μL of plasma and 15 μL of 10 μM compound (tested compound) were added in turn in a 96-well plate, and incubated at 37° C. • 2) 40 μL was taken out at 0, 15, 30, 60, 90, 120 min, respectively, and 160 μL of acetonitrile termination solution containing internal standard was added. • 3) After centrifugation (3500 rpm, 10 min), 50 μL of supernatant was taken out, and then diluted with 50 μL DDH2O and injected to LC-MS/MS.
• Instrument: Shimadzu LC-20 AD • Chromatographic column: phenomenex Gemiu® C18 (50*4.6 mm, 5 μM particle size); • mobile phase: A: acetonitrile, B: 0.1% formic acid solution […], 2.0-2.1 min: 90% A→5% A; flow rate: 0.8 mL/min; running time: 5.0 min; injection volume: 5 μL.
• Instrument: API4000 Liquid Chromatography-Mass Spectrometry, AB, USA; • the ion source was electrospray ionization source (ESI); • the temperature of dry gas (N2) was 500° C.; • electrospray voltage was 5500V; • the detection method was positive ion detection; • the scanning mode was selective response monitoring (MRM). • the scanning time was 0.1 s.

As for `C=CC(=O)N1C[C@H](C)N(c2nc(=O)n(-c3c(SC)ccnc3C(C)C)c3nc(-c4c(N)c(Cl)cc(Cl)c4F)c(Cl)cc23)C[C@H]1C` [Embodiment 193, 4-((2S, 5R)-4-acryloyl-2,5-dimethylpiperazin-1-yl)-7-(2-amino-3,5-dichloro-6-fluorophenyl)-6-chloro-1-(2-isopropyl-4-(methylthio)pyridin-3-yl) pyrido [2,3-d] pyrimidin-2 (1H)-one], the 50% inhibitory concentration (IC50) in data set [1] was 18 nM.
Same read-out and setting: the result for `C=CC(=O)N1CCN(c2nc(=O)n(-c3c(SC)ccnc3C(C)C)c3nc(-c4c(N)c(F)cc(Cl)c4F)c(Cl)cc23)[C@@H](C)C1` [Embodiment 194, 4-((S)-4-acryloyl-2-methylpiperazin-1-yl)-7-(2-amino-5-chloro-3,6-difluorophenyl)-6-chloro-1-(2-isopropyl-4-(methylthio)pyridin-3-yl) pyrido [2,3-d] pyrimidin-2 (1H)-one] reads 7 nM; that for `C=CC(=O)N1CCN(c2nc(=O)n(-c3c(SC)ccnc3C(C)C)c3nc(-c4c(N)c(C)cc(F)c4F)c(Cl)cc23)[C@@H](C)C1` [Embodiment 195, 4-((S)-4-acryloyl-2-methylpiperazin-1-yl)-7-(2-amino-5,6-difluoro-3-methylphenyl)-6-chloro-1-(2-isopropyl-4-(methylthio)pyridin-3-yl) pyrido [2,3-d] pyrimidin-2 (1H)-one], 5.2 nM; that for `C=CC(=O)N1C[C@H](C)N(c2nc(=O)n(-c3c(SC)ccnc3C(C)C)c3nc(-c4c(N)c(F)cc(Cl)c4F)c(Cl)cc23)C[C@H]1C` [Embodiment 196, 4-((2S, 5R)-4-acryloyl-2,5-dimethylpiperazin-1-yl)-7-(2-amino-5-chloro-3,6-difluorophenyl)-6-chloro-1-(2-isopropyl-4-(methylthio)pyridin-3-yl) pyrido [2,3-d] pyrimidin-2 (1H)-one], 5.3 nM.
For `C=CC(=O)N1CCN(c2nc(=O)n(-c3c(SC)ccnc3C(C)C)c3nc(-c4c(F)ccc(F)c4N)c(Cl)cc23)[C@@H](C)C1` [Embodiment 198, 4-((S)-4-acryloyl-2-methylpiperazin-1-yl)-7-(2-amino-3,6-difluorophenyl)-6-chloro-1-(2-isopropyl-4-(methylthio)pyridin-3-yl)pyrido[2,3-d]pyrimidin-2(1H)-one], in data set [1], the IC50 is 6 nM.
On to `C=CC(=O)N1C[C@H](C)N(c2nc(=O)n(-c3c(SC)ccnc3C(C)C)c3nc(-c4c(N)c(C)cc(F)c4F)c(Cl)cc23)C[C@H]1C` [Embodiment 201, 4-((2S, 5R)-4-acryloyl-2,5-dimethylpiperazin-1-yl)-7-(2-amino-5,6-difluoro-3-methylphenyl)-6-chloro-1-(2-isopropyl-4-(methylthio)pyridin-3-yl) pyrido [2,3-d] pyrimidin-2 (1H)-one], for which, in data set [1], the IC50 worked out at 4.9 nM.
In the case of `C=CC(=O)N1CCN(c2nc(=O)n(-c3c(SC)ccnc3C(C)C)c3nc(-c4c(C)cccc4F)c(Cl)cc23)[C@@H](C)C1` [Embodiment 206, 4-((S)-4-acryloyl-2-methylpiperazin-1-yl)-6-chloro-7-(2-fluoro-6-methylphenyl)-1-(2-isopropyl-4-(methylthio)pyridin-3-yl) pyrido [2,3-d] pyrimidin-2 (1H)-one], the IC50 in data set [1] was determined as 14 nM.
For `CC(C)[N+](C)(CCOC(=O)C1c2ccccc2Oc2ccccc21)C(C)C` [Propantheline, reference compound], in the data set “in vitro” (human), the “Residual rate (%) 0 min” value came to 100.00%, the “Residual rate (%) 15 min” value is 79.98%, the “Residual rate (%) 30 min” value was 50.52% and the “Residual rate (%) 60 min” value was 14.65%. Also, in the data set “in vitro” (human), the “Residual rate (%) 120 min” value was 0.72%. Besides, in the data set “in vitro” (mouse), the “Residual rate (%) 0 min” value turned out to be 100.00%, the “Residual rate (%) 15 min” value is listed as 79.79%, the “Residual rate (%) 30 min” value is listed as 48.66% and the “Residual rate (%) 60 min” value is recorded as 23.39%. Also, the “Residual rate (%) 120 min” value in “in vitro” (mouse) is listed as 6.66%.

A word on the IC50: it is the concentration that inhibits the measured activity by half.
